Data reported in US12514861B2, “Targeting DNA-PKCS and B7-H1 to treat cancer” (Mayo Foundation for Medical Education and Research, priority 2014, dated 2026).
Read-outs that look alike come from different tables or passages of the source.

Columns and labels:
B7-H1/624mel cells [1] = experiment: MTS tumor cell survival assay; type: cell-based; conditions: for drug resistance of B7-H1/624mel cells compared with Mock/624mel cells (tumor cell survival): varying drug concentrations, 72 hours of culture, MTS assay
Experimental: (§7) Cells were pre-treated with DMSO or NU7026 (10 uM) for 1 hour before treatment with doxorubicin (Dox). The relative survival of tumor cells was measured by MTS assay 72 hours after Dox treatment.
Experiments were conducted to test whether B7-H1-expressing tumors would show resistance to drugs that cause DNA damage. Along with cisplatin, which crosslinks DNA, doxorubicin (a topoisomerase II inhibitor that leads to generation of free radicals) and SN38 (a topoisomerase I inhibitor) were tested. Drug sensitivity in B7-H1- and Mock-transfected 624mel melanoma cells was examined in cultures with varying concentrations of the drugs. After 72 hours of culture, tumor cell survival was measured with a MTS assay (Pei et al., Cancer Cell 16:259-266, 2009).
(§8) To test whether the association of B7-H1 with DNA-PKcs is a mechanism of drug resistance, the effects of NU7026 on drug sensitivity of B7-H1- or Mock-transfected 624mel cells were tested. […] Using the same dose (10 uM) of NU7026, experiments were conducted to determine whether NU7026 would affect the drug sensitivity of B7-H1/624mel cells.

Mock/624mel cells = experiment: MTS tumor cell survival assay; type: cell-based; conditions: pretreatment with 10 uM NU7026 for 1 hour, MTS 72 hours after Dox
Experimental: as §7, §8

[2] = tested on: ERK1/2 activation in B7-H1/624mel cells; experiment: Intracellular flow cytometry for phospho-ERK1/2; type: cell-based; conditions: 10 uM, 24 hours
Experimental: (§1) FIG. 9 is a series of graphs plotting the levels of phosphorylated ERK (top graphs) and total ERK (bottom graphs) in Mock/624mel (left) and B7-H1/624mel (right) tumor cells treated with DMSO or NU7026. Cells were treated with DMSO or NU7026 (10 uM) for 24 hours before intracellular staining for phospho-ERK or total ERK. Numbers are MFI. Inhibition of DNA-PKcs reduced ERK activation, as indicated in the diagram on the right.
(§2) To test the role of DNA-PKcs in activation of the MAPK signal cascade, tumor cells were treated with NU7026, a DNA-PKcs specific inhibitor. […] As a mechanism of action of ERK1/2 in drug resistance, ERK1/2 phosphorylates Bim and enhances degradation of Bim in tumor cells (Gillings, et al., FEBS J 276:6050-6062, 2009; and Luciano et al., Oncogene 22:6785-6793, 2003).

[3] = tested on: ERK1/2 activation in Mock/624mel cells; experiment: Intracellular flow cytometry for phospho-ERK1/2; type: cell-based; conditions: 10 uM, 24 hours
Experimental: as §1, §2

[4] = target: T1, association of B7-H1 with DNA-PKcs (Homo sapiens, UniProt P78527); experiment: Immuno-precipitation assay of B7-H1 association with DNA-PKcs; type: cell-based; conditions: B7-H1 positive human breast cancer cells (MBA-MD-231)
T1 construct: B7-H1 positive human breast cancer cells (MBA-MD-231) were used; endogenous in cells; host or cells: MDA-MB-231 human breast cancer cells
Experimental: (§3) MBA-MD-231 human breast cancer cells, which are positive for B7-H1, were incubated with NU7026, an inhibitor of DNA-PKCs. […] FIG. 15B is a series of pictures from an immunofluorescence assay in which the cells treated with doxorubicin, NU7026, or both, and stained for DNA-PKcs, DNA, or B7-H1. Doxorubicin-induced co-localization (arrow, upper right panel) of B7-H1 and DNA-PKcs at the nucleus was blocked by NU7026 (lower right panel).
(§4) B7-H1 positive human breast cancer cells (MBA-MD-231) were used to examine the association of DNA-PKcs and B7-H1.

[5] = target: T2, co-localization of B7-H1 and DNA-PKcs at the nucleus (Homo sapiens, UniProt P78527); experiment: Immunofluorescence staining of B7-H1 and DNA-PKcs co-localization; type: cell-based
T2 construct: B7-H1 positive human breast cancer cells (MBA-MD-231) were used; endogenous in cells; host or cells: MDA-MB-231 human breast cancer cells
Experimental: FIG. 6 is a series of pictures showing co-localization of B7-H1 and DNA-PKcs. A human breast tumor cell line (MDA-MB-231) was treated with doxorubicin (2 ug/ml) for 2 hours. […] Arrows or arrowheads indicate B7-H1 in plasma or in nuclei, respectively.
as §3
B7-H1 undergoes redistribution from the cell surface into the nucleus in human breast tumor cells upon treatment with the cytotoxic drug, doxorubicin (Ghebeh et al., supra).
as §4

DNA-PKcs = DNA-PKcs (Homo sapiens, UniProt P78527); conditions: cited from earlier work
PI3K = conditions: read-out: IC50 for inhibition of PI3K; cited from earlier work
B7-H1/624mel cells [6] = experiment: Apoptosis by Annexin V binding and TMRE staining; type: cell-based; conditions: doxorubicin 1.5 ug/ml, 48 hr
Description: (§5) FIG. 1A is a series of graphs plotting relative survival of Mock/624mel (triangles) and B7-H1/624mel (squares) cells treated with the indicated drugs, as determined by MTS (3-(4,5-dimethylthiazol-2-yl)-5-(3-carboxymethoxyphenyl)-2-(4-sulfophenyl)-2H-tetrazolium) assay. The p-value for area under the curve (dose-response curves) was significant (p<0.01) for treatment with cisplatin (left), doxorubicin (center), and SN38 (right). One of three experiments is shown. Apoptosis of tumor cells treated with doxorubicin (1.5 ug/ml, 48 hr.) was analyzed by tetramethylrhodamine ethyl ester (TMRE) and Annexin V staining (FIG. 1), and by intracellular staining for active caspase-3 (FIG. 1C). Numbers are percentages of gated population.
(§6) Experiments were conducted to test whether B7-H1-expressing tumors would show resistance to drugs that cause DNA damage. […] After 72 hours of culture, tumor cell survival was measured with a MTS assay (Pei et al., Cancer Cell 16:259-266, 2009). […] Since a mechanism of action of most cytotoxic drugs is to induce apoptosis (Sedletska et al., Curr Med Chem Anti-cancer Agents 5:251-265, 2005; and Wang et al., J Biol Chem 279:25535-25543, 2004), apoptosis of B7-H1/624mel and Mock/624mel tumor cells was measured and compared after treatment with doxorubicin. […]

B7-H1/624mel cells [7] = experiment: Intracellular staining for active caspase-3; type: cell-based; conditions: doxorubicin 1.5 ug/ml, 48 hr
Description: as §5, §6

T2 sequence (P78527 whole entry): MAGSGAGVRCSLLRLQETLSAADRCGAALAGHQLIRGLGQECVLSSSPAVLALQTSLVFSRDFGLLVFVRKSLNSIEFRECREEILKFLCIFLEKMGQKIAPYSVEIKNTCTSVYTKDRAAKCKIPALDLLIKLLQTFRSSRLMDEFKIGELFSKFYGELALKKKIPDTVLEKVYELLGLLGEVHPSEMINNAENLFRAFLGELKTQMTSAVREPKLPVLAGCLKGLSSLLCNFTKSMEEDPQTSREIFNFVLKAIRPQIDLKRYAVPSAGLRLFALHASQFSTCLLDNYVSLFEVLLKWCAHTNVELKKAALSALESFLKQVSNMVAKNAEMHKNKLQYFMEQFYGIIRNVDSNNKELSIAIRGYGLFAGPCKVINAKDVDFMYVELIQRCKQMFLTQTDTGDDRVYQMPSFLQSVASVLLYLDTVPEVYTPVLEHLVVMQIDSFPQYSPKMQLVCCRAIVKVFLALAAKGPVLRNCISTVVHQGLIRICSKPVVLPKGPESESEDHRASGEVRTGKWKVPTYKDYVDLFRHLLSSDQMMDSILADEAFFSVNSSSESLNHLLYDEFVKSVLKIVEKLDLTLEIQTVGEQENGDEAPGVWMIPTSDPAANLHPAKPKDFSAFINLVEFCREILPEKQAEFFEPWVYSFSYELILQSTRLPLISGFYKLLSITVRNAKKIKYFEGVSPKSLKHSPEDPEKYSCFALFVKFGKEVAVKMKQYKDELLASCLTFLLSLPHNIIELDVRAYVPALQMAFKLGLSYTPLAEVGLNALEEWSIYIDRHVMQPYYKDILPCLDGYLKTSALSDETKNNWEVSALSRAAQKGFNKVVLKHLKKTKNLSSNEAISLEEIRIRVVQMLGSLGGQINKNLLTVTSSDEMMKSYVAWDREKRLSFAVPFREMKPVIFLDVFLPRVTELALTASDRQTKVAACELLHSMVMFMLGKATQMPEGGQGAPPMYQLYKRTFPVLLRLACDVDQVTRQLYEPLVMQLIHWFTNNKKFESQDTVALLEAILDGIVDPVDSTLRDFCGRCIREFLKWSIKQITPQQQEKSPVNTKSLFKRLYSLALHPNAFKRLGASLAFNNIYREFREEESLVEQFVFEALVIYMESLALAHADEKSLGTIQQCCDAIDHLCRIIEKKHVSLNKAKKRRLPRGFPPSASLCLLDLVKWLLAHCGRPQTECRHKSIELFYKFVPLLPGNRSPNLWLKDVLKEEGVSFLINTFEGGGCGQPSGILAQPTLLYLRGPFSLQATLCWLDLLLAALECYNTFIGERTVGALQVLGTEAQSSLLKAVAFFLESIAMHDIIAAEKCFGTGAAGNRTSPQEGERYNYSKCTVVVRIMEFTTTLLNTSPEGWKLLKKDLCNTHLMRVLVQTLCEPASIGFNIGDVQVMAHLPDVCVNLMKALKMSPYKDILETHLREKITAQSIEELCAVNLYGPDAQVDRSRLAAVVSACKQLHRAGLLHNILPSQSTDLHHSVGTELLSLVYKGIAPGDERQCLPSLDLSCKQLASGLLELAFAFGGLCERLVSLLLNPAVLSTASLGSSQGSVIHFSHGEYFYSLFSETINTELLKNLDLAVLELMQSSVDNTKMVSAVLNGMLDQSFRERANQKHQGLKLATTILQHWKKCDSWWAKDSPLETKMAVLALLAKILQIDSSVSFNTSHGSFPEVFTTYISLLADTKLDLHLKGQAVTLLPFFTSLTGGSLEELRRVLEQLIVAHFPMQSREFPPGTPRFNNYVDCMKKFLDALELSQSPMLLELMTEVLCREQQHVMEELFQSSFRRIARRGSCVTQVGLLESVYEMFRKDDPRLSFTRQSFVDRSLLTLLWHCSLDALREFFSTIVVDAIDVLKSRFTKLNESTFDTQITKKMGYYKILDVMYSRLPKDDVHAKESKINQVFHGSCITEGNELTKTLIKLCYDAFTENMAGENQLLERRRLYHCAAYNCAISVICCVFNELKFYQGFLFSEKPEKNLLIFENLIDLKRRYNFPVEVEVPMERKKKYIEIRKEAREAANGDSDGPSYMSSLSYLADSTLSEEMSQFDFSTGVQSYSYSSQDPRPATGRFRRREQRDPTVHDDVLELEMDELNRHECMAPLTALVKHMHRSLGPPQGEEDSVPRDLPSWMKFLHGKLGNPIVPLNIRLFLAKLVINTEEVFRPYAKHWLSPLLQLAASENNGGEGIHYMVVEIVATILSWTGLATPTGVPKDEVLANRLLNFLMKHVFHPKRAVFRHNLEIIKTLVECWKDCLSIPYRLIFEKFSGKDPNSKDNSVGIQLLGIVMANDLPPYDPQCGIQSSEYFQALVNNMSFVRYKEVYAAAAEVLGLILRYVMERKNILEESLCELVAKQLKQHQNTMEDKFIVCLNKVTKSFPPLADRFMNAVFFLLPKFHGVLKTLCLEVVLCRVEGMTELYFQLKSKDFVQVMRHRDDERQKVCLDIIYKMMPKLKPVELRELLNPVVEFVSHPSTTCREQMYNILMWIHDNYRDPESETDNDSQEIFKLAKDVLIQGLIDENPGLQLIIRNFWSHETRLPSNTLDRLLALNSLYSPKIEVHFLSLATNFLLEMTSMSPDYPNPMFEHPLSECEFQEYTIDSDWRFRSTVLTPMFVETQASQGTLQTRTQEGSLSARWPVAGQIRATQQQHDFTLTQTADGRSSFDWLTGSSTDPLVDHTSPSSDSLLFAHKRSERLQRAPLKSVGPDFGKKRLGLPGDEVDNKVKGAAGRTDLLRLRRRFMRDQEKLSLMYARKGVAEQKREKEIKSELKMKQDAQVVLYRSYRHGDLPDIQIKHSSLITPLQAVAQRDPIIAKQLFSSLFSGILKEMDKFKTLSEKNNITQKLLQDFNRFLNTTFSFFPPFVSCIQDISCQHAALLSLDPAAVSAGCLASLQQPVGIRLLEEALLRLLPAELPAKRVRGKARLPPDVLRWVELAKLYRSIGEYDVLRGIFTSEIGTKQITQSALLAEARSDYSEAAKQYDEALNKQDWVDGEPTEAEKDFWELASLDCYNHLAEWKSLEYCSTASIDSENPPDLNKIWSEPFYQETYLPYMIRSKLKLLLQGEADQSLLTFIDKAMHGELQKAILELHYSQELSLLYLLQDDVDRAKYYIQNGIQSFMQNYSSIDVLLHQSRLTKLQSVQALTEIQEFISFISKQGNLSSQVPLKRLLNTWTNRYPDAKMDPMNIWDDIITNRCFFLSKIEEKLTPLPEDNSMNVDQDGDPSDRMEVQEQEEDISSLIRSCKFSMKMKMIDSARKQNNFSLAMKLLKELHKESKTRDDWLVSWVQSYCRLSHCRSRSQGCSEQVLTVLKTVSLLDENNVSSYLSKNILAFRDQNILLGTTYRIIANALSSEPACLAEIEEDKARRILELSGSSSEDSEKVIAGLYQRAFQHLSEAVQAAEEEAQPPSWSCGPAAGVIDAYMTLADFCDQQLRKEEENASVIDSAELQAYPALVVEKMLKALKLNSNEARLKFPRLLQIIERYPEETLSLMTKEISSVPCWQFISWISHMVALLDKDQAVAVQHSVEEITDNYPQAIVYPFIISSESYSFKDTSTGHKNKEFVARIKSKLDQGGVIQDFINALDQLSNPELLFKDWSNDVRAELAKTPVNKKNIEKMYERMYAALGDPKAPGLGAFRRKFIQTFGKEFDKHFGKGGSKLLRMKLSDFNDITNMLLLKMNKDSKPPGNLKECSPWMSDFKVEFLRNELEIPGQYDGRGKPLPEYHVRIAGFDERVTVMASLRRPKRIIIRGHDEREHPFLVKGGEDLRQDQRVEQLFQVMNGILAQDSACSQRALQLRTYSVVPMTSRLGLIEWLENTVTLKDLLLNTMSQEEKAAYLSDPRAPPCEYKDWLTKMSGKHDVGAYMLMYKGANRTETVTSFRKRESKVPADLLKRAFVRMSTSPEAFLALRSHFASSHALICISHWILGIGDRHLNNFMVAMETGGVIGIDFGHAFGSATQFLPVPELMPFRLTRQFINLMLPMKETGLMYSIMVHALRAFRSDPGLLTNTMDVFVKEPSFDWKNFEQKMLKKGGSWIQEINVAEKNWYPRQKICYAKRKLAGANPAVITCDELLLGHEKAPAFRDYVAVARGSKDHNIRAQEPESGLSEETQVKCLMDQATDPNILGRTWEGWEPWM
T1 sequence (P78527 whole entry): as above

SMILES: O=c1cc(N2CCOCC2)oc2c1ccc1ccccc12 [NU7026]
- effect on resistance of B7-H1/624mel cells to doxorubicin (B7-H1/624mel cells [1]; pretreatment with 10 uM NU7026 for 1 hour, MTS 72 hours after Dox): lost their resistance to doxorubicin
- effect on drug sensitivity of Mock/624mel cells (Mock/624mel cells): increased the drug sensitivity
- decrease of activation of ERK1/2 (phospho-ERK) [2]: ~2 fold
- decrease of activation of ERK1/2 (phospho-ERK) [3]: not
- effect on association of B7-H1 with DNA-PKcs [4]: abolished
- effect on doxorubicin-induced co-localization of B7-H1 and DNA-PKcs at the nucleus ([5]; MBA-MD-231 cells, 1 μM NU7026): blocked
- inhibition of DNA-PKcs activity (DNA-PKcs; 10 uM): completely inhibits
- IC50 (DNA-PKcs; read-out: IC50 for inhibiting DNA-PKcs activity): 230 nM
- IC50 (DNA-PKcs; read-out: IC50 to inhibit DNA-PKcs): 230 nM
- IC50 (PI3K): 13000 nM

SMILES: CCc1c2c(nc3ccc(O)cc13)-c1cc3c(c(=O)n1C2)COC(=O)[C@]3(O)CC [SN38]
- drug resistance of B7-H1/624mel cells compared with Mock/624mel cells (tumor cell survival) (B7-H1/624mel cells [1]): more resistant

SMILES: N.N.[Cl][Pt][Cl] [cisplatin]
- drug resistance of B7-H1/624mel cells compared with Mock/624mel cells (tumor cell survival) (B7-H1/624mel cells [1]): more resistant

SMILES: COc1cccc2c1C(=O)c1c(O)c3c(c(O)c1C2=O)C[C@@](O)(C(=O)CO)C[C@@H]3O[C@H]1C[C@H](N)[C@H](O)[C@H](C)O1 [doxorubicin]
- drug resistance of B7-H1/624mel cells compared with Mock/624mel cells (tumor cell survival) (B7-H1/624mel cells [1]): more resistant
- apoptosis in B7-H1/624mel cells compared to Mock/624mel cells (fold less) (B7-H1/624mel cells [6]): 5 fold
- level of active caspase-3 in B7-H1/624mel cells compared with Mock/624mel cells (B7-H1/624mel cells [7]): lower
- localization of B7-H1 and DNA-PKcs after treatment with cytotoxic drug ([5]; MDA-MB-231 cells, doxorubicin 2 ug/ml, 2 hours): co-localization of B7-H1 and DNA-PKcs was observed in the nuclei
